Results published in patent US20240057606A1, “MOLECULES HAVING CERTAIN PESTICIDAL UTILITIES, AND INTERMEDIATES, COMPOSITIONS, AND PROCESSES RELATED THERETO” (priority 2020, published 2024).

Columns and labels:
Format in all cases: in vivo
[1] = test system: Beet Armyworm (Spodoptera exigua, "BAW"); assay: Bioassay on beet armyworm, 128-well diet tray assay; settings: 168 h, 50 μg/cm^2 of test compound on artificial diet, second instar larvae, 25° C., five to seven days, average of eight wells, read-out: BAW % Control (or Mortality) rating
Protocol: (§1) Bioassays on Beet Armyworm (Spodoptera exigua, “BAW”) and Cabbage Looper (Trichoplusia ni, “CL”)
(§2) Certain molecules disclosed in this document were tested against BAW and CL using procedures described in the following examples. In the reporting of the results, the “BAW & CL Rating Table” was used (See Table Section).
Bioassays on BAW were conducted using a 128-well diet tray assay. one to five second instar BAW larvae were placed in each well (3 mL) of the diet tray that had been previously filled with 1 mL of artificial diet to which 50 μg/cm^2 of the test compound (dissolved in 50 μL of 90:10 acetone-water mixture) had been applied (to each of eight wells) and then allowed to dry. Trays were covered with a clear self-adhesive cover and held at 25° C., 14:10 light-dark cycle for five to seven days. Percent mortality was recorded for the larvae in each well; activity in the eight wells was then averaged. The results are indicated in the table entitled “Table ABC: Biological Results” (See Table Section).

[2] = test system: Cabbage Looper (Trichoplusia ni, "CL"); assay: Bioassay on cabbage looper, 128-well diet tray assay; settings: 168 h, 50 μg/cm^2 of test compound on artificial diet, second instar larvae, 25° C., five to seven days, average of eight wells, read-out: CL % Control (or Mortality) rating
Protocol: as §1, §2
Bioassays on CL were conducted using a 128-well diet tray assay. one to five second instar CL larvae were placed in each well (3 mL) of the diet tray that had been previously filled with 1 mL of artificial diet to which 50 μg/cm^2 of the test compound (dissolved in 50 μL of 90:10 acetone-water mixture) had been applied (to each of eight wells) and then allowed to dry. Trays were covered with a clear self-adhesive cover and held at 25° C., 14:10 light-dark cycle for five to seven days. Percent mortality was recorded for the larvae in each well; activity in the eight wells was then averaged. The results are indicated in the table entitled “Table ABC: Biological Results” (See Table Section).

[3] = test system: Yellow Fever Mosquito (Aedes aegypti, "YFM"); assay: Bioassay on yellow fever mosquito larvae, 96-well plate assay; settings: 4000 ppm DMSO master solution diluted with 90:10 water:acetone; about 1 day-old larvae; room temperature; scored after 3 days
Protocol: Bioassays On Yellow Fever Mosquito (Aedes aegypti, “YFM”)
Certain molecules disclosed in this document were tested against YFM using procedures described in the following paragraph. In the reporting of the results, the “YFM Rating Table” was used (See Table Section).
Master plates containing 400 μg of a molecule dissolved in 100 μL of dimethyl sulfoxide (DMSO) (equivalent to a 4000 ppm solution) are used. A master plate of assembled molecules contains 15 μL per well. To this plate, 135 μL of a 90:10 water:acetone mixture is added to each well. A robot (Biomek® NXP Laboratory Automation Workstation) is programmed to dispense 15 μL aspirations from the master plate into an empty 96-well shallow plate (“daughter” plate). There are 6 reps (“daughter” plates) created per master. The created daughter plates are then immediately infested with YFM larvae.
The day before plates are to be treated, mosquito eggs are placed in Millipore water containing liver powder to begin hatching (4 g. into 400 mL). After the daughter plates are created using the robot, they are infested with 220 μL of the liver powder/larval mosquito mixture (about 1 day-old larvae). After plates are infested with mosquito larvae, a non-evaporative lid is used to cover the plate to reduce drying. Plates are held at room temperature for 3 days prior to grading. After 3 days, each well is observed and scored based on mortality.

Compound	mortality at 50 µg/cm2 [1]	mortality at 50 µg/cm2 [2]	YFM % Control (or Mortality) rating [3]
O=C(/N=C1\SCC(=O)N1c1cccc2c1OCC2)Nc1ccc(-c2ncn(-c3ccc(OC(F)(F)F)cc3)n2)cc1F [F9, (Z)-1-(3-(2,3-Dihydrobenzofuran-7-yl)-4-oxothiazolidin-2-ylidene)-3-(2-fluoro-4-(1-(4-(trifluoromethoxy)phenyl)-1H-1,2,4-triazol-3-yl)phenyl)urea]	50 to 100%	50 to 100%	–
O=C(/N=C1\SCC(=O)N1c1ccc2c(c1)C(=O)OC2=O)Nc1ccc(-c2ncn(-c3ccc(OC(F)(F)F)cc3)n2)cc1F [F11, (Z)-1-(3-(1,3-Dioxo-1,3-dihydroisobenzofuran-5-yl)-4-oxothiazolidin-2-ylidene)-3-(2-fluoro-4-(1-(4-(trifluoromethoxy)phenyl)-1H-1,2,4-triazol-3-yl)phenyl)urea]	0%	50 to 100%	–
O=C(/N=C1\SCC(=O)N1c1cccc2c1CCOC2)Nc1ccc(-c2ncn(-c3ccc(OC(F)(F)F)cc3)n2)cc1F [F18, (Z)-1-(2-Fluoro-4-(1-(4-(trifluoromethoxy)phenyl)-1H-1,2,4-triazol-3-yl)phenyl)-3-(3-(isochroman-5-yl)-4-oxothiazolidin-2-ylidene)urea]	50 to 100%	50 to 100%	A (80-100)
Cn1ccc2c(N3C(=O)CS/C3=N\C(=O)Nc3ccc(-c4ncn(-c5ccc(C(F)(F)C(F)(F)F)cc5)n4)cc3F)cccc21 [F30, (Z)-1-(2-Fluoro-4-(1-(4-(perfluoroethyl)phenyl)-1H-1,2,4-triazol-3-yl)phenyl)-3-(3-(1-methyl-1H-indol-4-yl)-4-oxothiazolidin-2-ylidene)urea]	–	–	A (80-100)
Cc1cc(-c2ncn(-c3ccc(OC(F)(F)F)cc3)n2)ccc1NC(=O)/N=C1\SCC(=O)N1c1cc2c(cc1COCC(F)(F)F)OCO2 [F1]	50 to 100%	50 to 100%	–
O=C(/N=C1\SCC(=O)N1c1cccc2ccoc12)Nc1ccc(-c2ncn(-c3ccc(OC(F)(F)F)cc3)n2)cc1F [F5, (Z)-1-(3-(Benzofuran-7-yl)-4-oxothiazolidin-2-ylidene)-3-(2-fluoro-4-(1-(4-(trifluoromethoxy)phenyl)-1H-1,2,4-triazol-3-yl)phenyl)urea]	50 to 100%	50 to 100%	–
O=C(/N=C1\SCC(=O)N1c1cccc2occc12)Nc1ccc(-c2ncn(-c3ccc(OC(F)(F)F)cc3)n2)cc1F [F4, (Z)-1-(3-(Benzofuran-4-yl)-4-oxothiazolidin-2-ylidene)-3-(2-fluoro-4-(1-(4-(trifluoromethoxy)phenyl)-1H-1,2,4-triazol-3-yl)phenyl)urea]	50 to 100%	50 to 100%	–
Cc1cc(-c2ncn(-c3ccc(OC(F)(F)C(F)(F)F)cc3)n2)ccc1NC(=O)/N=C1\SCC(=O)N1c1cccc2ccccc12 [F26, (Z)-1-(2-Methyl-4-(1-(4-(perfluoroethoxy)phenyl)-1H-1,2,4-triazol-3-yl)phenyl)-3-(3-(naphthalen-1-yl)-4-oxothiazolidin-2-ylidene)urea]	50 to 100%	50 to 100%	–
O=C(/N=C1\SCC(=O)N1c1cc2c(cc1COCC(F)(F)F)OCO2)Nc1ccc(-c2ncn(-c3ccc(OC(F)(F)F)cc3)n2)cc1F [F2, (Z)-1-(2-Fluoro-4-(1-(4-(trifluoromethoxy)phenyl)-1H-1,2,4-triazol-3-yl)phenyl)-3-(4-oxo-3-(6-((2,2,2-trifluoroethoxy)methyl)benzo[d][1,3]dioxol-5-yl)thiazolidin-2-ylidene)urea]	50 to 100%	50 to 100%	–
Cn1ccc2cc(N3C(=O)CS/C3=N\C(=O)Nc3ccc(-c4ncn(-c5ccc(C(F)(F)C(F)(F)F)cc5)n4)cc3F)ccc21 [F24, (Z)-1-(2-Fluoro-4-(1-(4-(perfluoroethyl)phenyl)-1H-1,2,4-triazol-3-yl)phenyl)-3-(3-(1-methyl-1H-indol-5-yl)-4-oxothiazolidin-2-ylidene)urea]	–	–	D (No activity noticed in this bioassay)
O=C(/N=C1\SCC(=O)N1c1cccc2c1COC2)Nc1ccc(-c2ncn(-c3ccc(OC(F)(F)F)cc3)n2)cc1F [F8, (Z)-1-(3-(1,3-Dihydroisobenzofuran-4-yl)-4-oxothiazolidin-2-ylidene)-3-(2-fluoro-4-(1-(4-(trifluoromethoxy)phenyl)-1H-1,2,4-triazol-3-yl)phenyl)urea]	50 to 100%	50 to 100%	–
Cc1cc(-c2ncn(-c3ccc(OC(F)(F)C(F)(F)F)cc3)n2)ccc1NC(=O)/N=C1\SCC(=O)N1c1ccc2c(ccn2C)c1 [F31, (Z)-1-(3-(1-Methyl-1H-indol-5-yl)-4-oxothiazolidin-2-ylidene)-3-(2-methyl-4-(1-(4-(perfluoroethoxy)phenyl)-1H-1,2,4-triazol-3-yl)phenyl)urea]	–	–	A (80-100)
O=C(/N=C1\SCC(=O)N1c1cccc2ncccc12)Nc1ccc(-c2ncn(-c3ccc(C(F)(F)C(F)(F)F)cc3)n2)cc1F [F34, (Z)-1-(2-Fluoro-4-(1-(4-(perfluoroethyl)phenyl)-1H-1,2,4-triazol-3-yl)phenyl)-3-(4-oxo-3-(quinolin-5-yl)thiazolidin-2-ylidene)urea]	–	–	A (80-100)
Cc1cc(-c2ncn(-c3ccc(OC(F)(F)C(F)(F)F)cc3)n2)ccc1NC(=O)/N=C1\SCC(=O)N1c1cccc2c1OCC2 [F28, (Z)-1-(3-(2,3-Dihydrobenzofuran-7-yl)-4-oxothiazolidin-2-ylidene)-3-(2-methyl-4-(1-(4-(perfluoroethoxy)phenyl)-1H-1,2,4-triazol-3-yl)phenyl)urea]	–	–	A (80-100)
O=C(/N=C1\SCC(=O)N1c1cccc2c1CCC2)Nc1ccc(-c2ncn(-c3ccc(OC(F)(F)F)cc3)n2)cc1F [F10, (Z)-1-(3-(2,3-Dihydro-1H-inden-4-yl)-4-oxothiazolidin-2-ylidene)-3-(2-fluoro-4-(1-(4-(trifluoromethoxy)phenyl)-1H-1,2,4-triazol-3-yl)phenyl)urea]	50 to 100%	50 to 100%	–
O=C(/N=C1\SCC(=O)N1c1cc2c(cc1COCC(F)(F)F)OCO2)Nc1ccc(-c2ncn(-c3ccc(S(F)(F)(F)(F)F)cc3)n2)cc1F [F3, (Z)-1-(2-Fluoro-4-(1-(4-(pentafluoro-λ^6-sulfaneyl)phenyl)-1H-1,2,4-triazol-3-yl)phenyl)-3-(4-oxo-3-(6-((2,2,2-trifluoroethoxy)methyl)benzo[d][1,3]dioxol-5-yl)thiazolidin-2-ylidene)urea]	50 to 100%	50 to 100%	–
Cc1cc(-c2ncn(-c3ccc(OC(F)(F)C(F)(F)F)cc3)n2)ccc1NC(=O)/N=C1\SCC(=O)N1c1cccc2c1CCO2 [F25, (Z)-1-(3-(2,3-Dihydrobenzofuran-4-yl)-4-oxothiazolidin-2-ylidene)-3-(2-methyl-4-(1-(4-(perfluoroethoxy)phenyl)-1H-1,2,4-triazol-3-yl)phenyl)urea]	50 to 100%	50 to 100%	–
O=C(/N=C1\SCC(=O)N1c1cccc2ocnc12)Nc1ccc(-c2ncn(-c3ccc(OC(F)(F)F)cc3)n2)cc1F [F7, (Z)-1-(3-(Benzo[d]oxazol-4-yl)-4-oxothiazolidin-2-ylidene)-3-(2-fluoro-4-(1-(4-(trifluoromethoxy)phenyl)-1H-1,2,4-triazol-3-yl)phenyl)urea]	50 to 100%	50 to 100%	–
